Results taken from PMC8778187, “A New Oxygen Containing Pyclen-Type Ligand as a Manganese(II) Binder for MRI and ^52Mn PET Applications: Equilibrium, Kinetic, Relaxometric, Structural and Radiochemical Studies” (Molecules, 2022).

Legend:
[1] = Stability and protonation constants of Zn(II) complexes by pH-potentiometry; type: physicochemical; details: Zn^2+ complex; T = 25 °C, I = 0.15 M NaCl
Method: The stability and protonation constants of the metal complexes formed with H2OPC2A were determined by pH-potentiometric titrations, but, for the Cu(II) complex, UV-Vis spectrophotometric measurements were also carried out to supplement the pH-potentiometric titration data (Figures S21 and S22, Supporting Information).
Metal stock solutions were prepared from the highest analytical grade chemicals, and their concentrations were determined by complexometric titration with standardized Na2H2EDTA and eriochrome black T indicator in the presence of ascorbic acid, and potassium hydrogen tartrate for MnCl2, murexide indicator for CaCl2 and CuCl2, eriochrome black T for MgCl2 and xylenol orange in the presence of hexamethylenetetramine for the solution of ZnCl2. The concentration of the ligand stock solution was determined by pH-potentiometric titrations. The protonation constants of the ligand were determined by the pH potentiometric titrations with 0.15 M NaOH, using 0.0025 M ligand solutions. The ionic strength was set to 0.15 M by using NaCl. The titrated samples (starting volume of 6 mL) were stirred mechanically, and thermostated at 25 °C by a circulating water bath (±0.1 °C). […]
To avoid the effect of CO2, N2 gas was bubbled through the solutions during the titrations process. […] For the calibration of the pH meter, KH-phtalate (pH = 4.005) and borax (pH = 9.177) buffers were used, and the H^+ ion concentrations were calculated from the measured pH values by applying the method proposed by Irving et al.. A solution of approximately 0.01 M HCl was titrated with a 0.15 M NaOH solution (0.15 or 1.00 M NaCl), and the differences between the measured and calculated pH values (for the points with pH < 2.4) were used to calculate the (H^+) from the pH values measured in the titration experiments. […] The stability constants of the metal complexes (except for Cu(II)) were determined using the direct pH-potentiometric method, by titrating samples with 1:1 metal-to-ligand ratios (the number of fitted data pairs were between 127–212), allowing 1 min for the sample equilibration to occur. […]

[2] = Metal exchange (transmetalation) with Zn(II) followed by T2 relaxometry; type: physicochemical
Excerpt: The kinetic inertness of the complexes considered for in vivo applications is an important parameter. It can be characterized by using various approaches. One of the possibilities is to study the rates of dissociation of the complexes, by following the transmetalation reactions occurring between the complex and the large excess (applied to ensure pseudo-first-order conditions) of a suitable exchanging metal ions (essential metal ions, such as Zn(II) or Cu(II) are often used for this purpose). The rates of dissociation reactions are explored as a function of pH (in a wide pH range) as well as in a wide metal ion concentration range, in order to obtain information about the contribution of various mechanisms (spontaneous, acid-, or metal-assisted dissociation). […] Results obtained for different complexes under the same conditions can be compared, and the order of relative inertness can be accessed rapidly. Finally, in the field of nuclear medicine, the “serum stability” is often determined, which, in fact, reflects dissociation in the blood serum (i.e., the dissociation initiated by the serum components). Upon the dissociation of the complex, the Mn(II) reacts with the serum components (HSA for instance), which results in a considerable relaxivity enhancement caused by the formation of Mn(II) species with a longer rotational correlation time (a remarkable increase in molecular mass). Therefore, ^1H relaxometry is an easily accessible tool for following the transmetalation/transchelation reactions of paramagnetic complexes occurring in blood serum.
Metal exchange reactions occurring with Zn(II) at pH = 6.0: first, we evaluated the rate of the metal exchange reaction occurring with Zn(II) under the conditions proposed by P. Caravan and coworkers, in order to have an idea of how the replacement of the secondary amine group for an etheric oxygen in the rim of the pyclen macrocycle affects the inertness of its corresponding Mn(II) complex. The plot of the 1/T2 values as a function of time for the [Mn(3,9-OPC2A)] and [Mn(3,9-PC2A)] complexes are shown in Figure S26 (Supporting Information). Fitting the measured data for the [Mn(3,9-OPC2A)] by the monoexponential function gives the rate constant kobs = (1.74 ± 0.04) × 10^−5 s^−1.
The inertness of the [Mn(3,9-OPC2A)] complex was studied by various methods. The transmetalation reaction initiated by the Zn(II) ions was monitored by measuring the T2 relaxation times as a function of time at pH = 6.0, set by a 50 mM 2-(N-morpholino)ethanesulfonic acid (MES) buffer in the presence of 25 equivalents of Zn(II) ions at 37 °C. These conditions were recently used by P. Caravan et al., and employed in the present study to obtain data that can be directly compared with that of [Mn(PyC3A)]^– [6].

[3] = pH = 6.0, 25 equivalents of Zn(II), 37 °C

SMILES	log KMnHL [1]	log KMnL [1]	log KMnLOH [1]	kobs ([2]; pH = 6.0 (50 mM MES), 25 equivalents of Zn(II), 37 °C)	kobs lower than that of [Mn(PyC3A)] [2, 3]	kobs smaller than that of [Mn(3,9-PC2A)] [2, 3]	half-life of dissociation at pH = 7.4 ([2]; pH = 7.4, large Zn(II) excess, from the rate constant)
O=C(O)CN1CCOCCN(CC(=O)O)Cc2cccc(n2)C1 [H23,9-OPC2A, 6-Oxa-3,9,15-triazabicyclo(9.3.1)pentadeca-1(15),11,13-triene-3,9-diacetic acid]	2.08(3)	14.81(1)	10.95(2)				
O=C([O-])CN1CCOCCN(CC(=O)[O-])Cc2cccc(n2)C1.[Mn+2] [[Mn(3,9-OPC2A)]]				(1.74 ± 0.04) × 10^−5 s^−1	~40 times	circa 20 times	40.0 h
